According to article PMC11823594, “Durlobactam in combination with β-lactams to combat Mycobacterium abscessus” (Antimicrobial Agents and Chemotherapy, 2024):
≈ marks a conversion by molar mass, not a printed value. Read-outs that look alike come from different tables or passages of the source. Values belong to the compound of their own block, whether it stands above or below them.

How the values were obtained:
Mab ATCC 19977 strain = experiment: MIC testing (CLSI, Middlebrook 7H9 broth); format: cell-based, Mycobacterium abscessus; conditions: for MIC: Mycobacteroides abscessus, read-out: MIC, alone
[1] = Predicted average unbound steady-state plasma concentration (fCss,avg) at clinically relevant doses; set-up: species or system human
LDT3 = LDT3 (Mycobacterium abscessus, UniProt B1MHQ4); experiment: Mass spectrometry of covalent adduct formation; format: binding; conditions: protein:drug 1:20, 2 h; mass accuracy ±5 Da; (−) = no change
Sequence of LDT3 (B1MHQ4 entry or part of it): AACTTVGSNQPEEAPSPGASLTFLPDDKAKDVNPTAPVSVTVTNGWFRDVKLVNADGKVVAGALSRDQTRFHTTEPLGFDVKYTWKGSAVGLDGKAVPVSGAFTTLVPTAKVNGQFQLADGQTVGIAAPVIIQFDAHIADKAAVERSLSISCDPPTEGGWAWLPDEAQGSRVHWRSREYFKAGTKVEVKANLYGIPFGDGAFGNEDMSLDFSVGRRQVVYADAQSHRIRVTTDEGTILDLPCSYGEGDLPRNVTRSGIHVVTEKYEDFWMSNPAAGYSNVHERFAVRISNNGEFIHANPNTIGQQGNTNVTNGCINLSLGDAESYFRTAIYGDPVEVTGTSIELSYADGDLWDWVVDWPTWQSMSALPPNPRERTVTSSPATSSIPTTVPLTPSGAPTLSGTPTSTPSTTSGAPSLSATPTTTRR
Procedure: Truncated sequences of LDT1-5, DDC, PBP B, and PBP-lipo (Δ1–41) were generated by Celtek Biosciences and cloned into the pET28(a) + vector with a tobacco etch virus (TEV) protease cleavage site before the start codon. Clones were transformed into Escherichia coli BL21 (DE3) and grown to an OD600 of 0.6–0.8. Protein expression was induced with 0.25 mM isopropyl β-d-1-thiogalactopyranoside (IPTG) and incubated for 18 h at 18°C. Cell pellets were collected and stored at −20°C overnight, then resuspended in a buffer containing 50 mM Tris (pH 8.0), 400 mM sodium chloride, and 1 mM Tris (2-carboxyethyl) phosphine hydrochloride (TCEP), followed by sonication and centrifugation. The supernatant was purified using a His Prep FF 16/10 column (GE Healthcare) and eluted with 500 mM imidazole. Eluted protein was dialyzed overnight at 4°C in a buffer with 50 mM Tris (pH 8.0), 150 mM sodium chloride, and 0.5 mM TCEP in the presence of His-tagged TEV protease. To remove the His tag, the mixture was passed over the His Prep FF 16/10 column again.
The purified proteins listed above were incubated at room temperature with β-lactams or BLIs at a molar ratio of 1:20 for 2 h. The reactions were then quenched with acetonitrile and diluted to 1 mL with 0.1% formic acid in water. Samples were analyzed using a quadrupole time-of-flight (Q-TOF) Waters Synapt-G2-Si electrospray ionization mass spectrometer (ESI-MS) and a Waters Acquity H class ultra-performance liquid chromatography (UPLC) system, equipped with a BEH C18 1.7 µm column (2.1 × 50 mm). The MS was tuned with the following settings: capillary voltage set at 3 kV, sampling cone at 35 V, source offset at 35, source temperature of 100°C, desolvation temperature of 500°C, cone gas flow rate at 100 L/h, desolvation gas flow rate at 800 L/h, and nebulizer set at 6.0. The mobile phases consisted of 0.1% formic acid in water and 0.1% formic acid in 100% acetonitrile, with gradient elution from 10% to 90% of […] over 11 min. The system’s mass accuracy was ±5 Da.

PBP-lipo [2] = molecular target: T1, PBP-lipo (Mycobacteroides abscessus, UniProt B1MDC3); experiment: Bocillin-FL binding assay; conditions: 2 h incubation, 1:10 molar ratio
T1 construct: made in house; host or cells: Escherichia coli BL21 (DE3)
T1 sequence (B1MDC3 entry or part of it): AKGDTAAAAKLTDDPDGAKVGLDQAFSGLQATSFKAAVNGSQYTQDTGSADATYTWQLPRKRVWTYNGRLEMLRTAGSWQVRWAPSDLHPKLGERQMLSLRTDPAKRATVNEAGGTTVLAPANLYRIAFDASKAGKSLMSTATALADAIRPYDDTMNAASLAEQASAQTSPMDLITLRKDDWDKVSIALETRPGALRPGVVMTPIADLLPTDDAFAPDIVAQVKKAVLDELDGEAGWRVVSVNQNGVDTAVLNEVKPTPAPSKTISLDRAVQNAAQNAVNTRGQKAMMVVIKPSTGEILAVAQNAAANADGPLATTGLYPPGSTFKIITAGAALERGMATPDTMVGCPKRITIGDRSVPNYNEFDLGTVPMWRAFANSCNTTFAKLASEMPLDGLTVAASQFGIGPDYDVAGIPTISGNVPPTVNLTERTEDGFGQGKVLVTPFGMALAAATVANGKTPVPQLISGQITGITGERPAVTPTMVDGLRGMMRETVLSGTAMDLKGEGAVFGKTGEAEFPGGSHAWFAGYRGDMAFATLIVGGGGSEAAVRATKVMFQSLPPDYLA
Procedure: To analyze the binding of PBP-lipo with β-lactams or BLIs, purified PBP-lipo (4 µg) was incubated with β-lactams or BLIs at a 1:10 molar ratio in a buffer containing 10 mM sodium phosphate (pH 7.4) and 150 mM NaCl. The incubation was carried out for 2 h at room temperature. After the initial incubation, 1 µM Bocillin FL was added to the reaction mixture. The incubation was continued for an additional 3–4 h at 37°C. After incubation, the samples were boiled to denature the proteins. The samples were then subjected to SDS-PAGE. The PBP-lipo:Bocillin complexes were visualized by fluorescence analysis at a wavelength of 488 nm using an Azure 300 gel imaging system. The intensity of the PBP-lipo:Bocillin complex bands was analyzed using GelAnalyzer software. The intensity of the band for PBP-lipo alone (without β-lactams) was set to 1 as the highest intensity. The intensity of each band for PBP-lipo incubated with β-lactams was then normalized by dividing by the intensity of the band for PBP-lipo alone.

LDT1 = LDT1 (Mycobacterium abscessus, UniProt B1MDC1); experiment: Steady-state kinetics with nitrocefin (Ki,app); format: biochemical; conditions: for Ki: nitrocefin at 5 × Km, read-out: Ki,app LDT1 (converted)
Sequence of LDT1 (B1MDC1 entry or part of it): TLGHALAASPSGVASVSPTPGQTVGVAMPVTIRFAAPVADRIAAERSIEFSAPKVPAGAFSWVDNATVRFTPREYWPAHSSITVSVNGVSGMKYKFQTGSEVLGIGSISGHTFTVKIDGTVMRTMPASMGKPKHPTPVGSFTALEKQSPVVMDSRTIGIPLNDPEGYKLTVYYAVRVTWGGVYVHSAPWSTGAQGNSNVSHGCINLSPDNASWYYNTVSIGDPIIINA
Procedure: (§1) Steady-state kinetic studies were conducted using purified LDTs and PBPs (LDT1-5, PBP B, PBP-lipo, and DDC) as previously described ([20]). The assays were performed using a BioTek Synergy2 multimode reader in conjunction with Gen5 analysis software. Increasing concentrations of NCF (Δε482 = 17,400 M^⁻¹ cm^⁻¹) were used, while fixed concentrations of the LDTs and PBPs were monitored for changes in absorbance at 482 nm over a time period of 0 to 10 min. To determine reaction velocities, a 0.25 cm path length was employed. The steady-state kinetic parameters (Vmax, kcat, and Km) were obtained by fitting the data to the Henri-Michaelis-Menten equation using a nonlinear least-squares fit in Origin 8.1 software (OriginLab, Northampton, MA). The reaction rate (v) at a given substrate concentration ([S]) was calculated according to the following equations: […]
(§2) To determine the apparent inhibition constants (Ki,app) for β-lactams and BLIs, the following experimental condition was employed: NCF as a substrate at a concentration of 5 × Km, LDT/ PBP enzymes with fixed concentration, and β-lactams and BLIs with various concentrations. Changes in absorbance at 482 nm were measured over a period of 0–30 min for each concentration of β-lactams and BLIs. Data were linearized using a Dixon plot, plotting the inverse changes in absorbance (1/ΔA) against the concentrations of β-lactams and BLIs. The observed Ki,app was determined directly from the Dixon plot, and these values were corrected for substrate concentration and affinity for the LDT using the following equation:
(§3) Ki,app=observed Ki,app/1+[NCF]/Km NCF

LDT2 [3] = molecular target: T2, LDT2 (Mycobacterium abscessus, UniProt B1MMQ4); experiment: Steady-state kinetics with nitrocefin (Ki,app); format: biochemical; conditions: for Ki: nitrocefin at 5 × Km, read-out: Ki,app LDT2 (converted)
T2 sequence (B1MMQ4 entry or part of it): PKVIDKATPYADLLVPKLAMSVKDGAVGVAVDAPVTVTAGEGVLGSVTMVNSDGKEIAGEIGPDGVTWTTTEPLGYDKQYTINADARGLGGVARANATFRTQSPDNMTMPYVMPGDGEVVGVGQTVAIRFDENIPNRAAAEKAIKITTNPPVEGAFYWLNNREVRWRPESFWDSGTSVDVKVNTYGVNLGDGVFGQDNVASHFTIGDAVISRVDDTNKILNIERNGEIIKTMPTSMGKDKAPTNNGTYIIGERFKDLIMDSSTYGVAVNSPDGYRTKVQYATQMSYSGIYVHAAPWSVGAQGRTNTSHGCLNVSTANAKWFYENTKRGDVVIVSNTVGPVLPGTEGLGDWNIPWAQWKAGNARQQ
Procedure: as §1, §2, §3

LDT4 = LDT4 (Mycobacterium abscessus, UniProt B1MKW1); experiment: Steady-state kinetics with nitrocefin (Ki,app); format: biochemical; conditions: in parentheses in Table 3
Sequence of LDT4 (B1MKW1 entry or part of it): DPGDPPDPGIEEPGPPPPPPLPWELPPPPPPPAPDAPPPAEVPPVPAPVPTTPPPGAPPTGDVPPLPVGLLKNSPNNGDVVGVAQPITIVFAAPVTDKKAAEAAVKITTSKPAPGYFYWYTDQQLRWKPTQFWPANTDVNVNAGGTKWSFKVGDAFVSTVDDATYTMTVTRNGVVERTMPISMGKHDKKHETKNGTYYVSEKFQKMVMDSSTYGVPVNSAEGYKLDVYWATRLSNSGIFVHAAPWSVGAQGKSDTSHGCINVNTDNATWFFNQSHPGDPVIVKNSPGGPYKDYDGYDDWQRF
Procedure: as §1, §2, §3

PBP-lipo [4] = molecular target: T1, PBP-lipo; experiment: Steady-state kinetics with nitrocefin (Ki,app); format: biochemical
Procedure: as §1, §2, §3

DDC = DDC (Mycobacteroides abscessus, UniProt B1MDJ1); experiment: Steady-state kinetics with nitrocefin (Ki,app); format: biochemical; conditions: in parentheses in Table 3;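 also: Parenthesised value is the fCss,avg to Ki,app ratio where above 1 means target likely hit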
Sequence of DDC (B1MDJ1 entry or part of it): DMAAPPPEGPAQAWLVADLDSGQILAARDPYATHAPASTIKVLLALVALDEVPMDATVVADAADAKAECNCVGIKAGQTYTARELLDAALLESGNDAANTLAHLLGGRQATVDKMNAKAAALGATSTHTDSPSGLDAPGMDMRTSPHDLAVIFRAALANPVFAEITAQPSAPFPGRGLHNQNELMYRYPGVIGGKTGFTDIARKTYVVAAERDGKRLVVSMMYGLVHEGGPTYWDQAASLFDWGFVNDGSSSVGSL
Procedure: as §1, with “Increasing concentrations of NCF (Δε482 = 17,400 M^⁻¹ cm^⁻¹) were used, while fixed concentrations of the LDTs and PBPs were monitored for changes in absorbance at 482 nm over a time period of 0 to 10 min.” left out
(§4) Changes in absorbance at 482 nm were measured over a period of 0–30 min for each concentration of β-lactams and BLIs. Data were linearized using a Dixon plot, plotting the inverse changes in absorbance (1/ΔA) against the concentrations of β-lactams and BLIs. The observed Ki,app was determined directly from the Dixon plot, and these values were corrected for substrate concentration and affinity for the LDT using the following equation:
as §3

LDT5 = LDT5 (Mycobacterium abscessus, UniProt B1MM58); experiment: Steady-state kinetics with nitrocefin (Ki,app); format: biochemical; conditions: in parentheses in Table 3
Sequence of LDT5 (B1MM58 entry or part of it): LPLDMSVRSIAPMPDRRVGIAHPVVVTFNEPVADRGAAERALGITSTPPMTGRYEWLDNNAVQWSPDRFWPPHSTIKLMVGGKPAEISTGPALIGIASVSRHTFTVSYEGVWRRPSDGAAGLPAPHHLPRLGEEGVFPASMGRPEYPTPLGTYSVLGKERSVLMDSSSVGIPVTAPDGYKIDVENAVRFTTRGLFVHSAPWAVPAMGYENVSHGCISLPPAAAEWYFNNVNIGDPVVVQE
Procedure: as §1, with “Increasing concentrations of NCF (Δε482 = 17,400 M^⁻¹ cm^⁻¹) were used, while fixed concentrations of the LDTs and PBPs were monitored for changes in absorbance at 482 nm over a time period of 0 to 10 min.” left out
as §4, §3

PBP B = PBP B (Mycobacterium abscessus, UniProt B1MP31); experiment: Steady-state kinetics with nitrocefin (Ki,app); format: biochemical;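 as to Ratio of fCss,avg to Ki,app, PBP B: Parenthesised value is the fCss,avg to Ki,app ratio where above 1 means target likely hit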
Sequence of PBP B (B1MP31 entry or part of it): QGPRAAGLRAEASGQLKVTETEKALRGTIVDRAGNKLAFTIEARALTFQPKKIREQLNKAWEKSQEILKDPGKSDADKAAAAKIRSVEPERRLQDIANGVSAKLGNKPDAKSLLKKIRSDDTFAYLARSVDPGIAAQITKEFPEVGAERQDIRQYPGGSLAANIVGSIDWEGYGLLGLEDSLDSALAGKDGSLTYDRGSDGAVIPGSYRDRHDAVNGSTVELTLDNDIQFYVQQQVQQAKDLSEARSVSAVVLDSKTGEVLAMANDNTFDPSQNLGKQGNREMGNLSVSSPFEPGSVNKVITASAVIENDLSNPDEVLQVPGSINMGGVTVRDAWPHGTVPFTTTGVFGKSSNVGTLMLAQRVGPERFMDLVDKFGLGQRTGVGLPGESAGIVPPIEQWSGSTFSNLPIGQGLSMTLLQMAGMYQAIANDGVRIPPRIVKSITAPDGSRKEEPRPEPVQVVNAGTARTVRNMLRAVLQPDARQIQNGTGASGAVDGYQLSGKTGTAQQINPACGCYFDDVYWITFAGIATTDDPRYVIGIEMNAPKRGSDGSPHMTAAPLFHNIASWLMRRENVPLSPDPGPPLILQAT
Procedure: as §1, with “Increasing concentrations of NCF (Δε482 = 17,400 M^⁻¹ cm^⁻¹) were used, while fixed concentrations of the LDTs and PBPs were monitored for changes in absorbance at 482 nm over a time period of 0 to 10 min.” left out
as §4, §3

BlaMab = BlaMab (Mycobacterium abscessus, UniProt B1MCI3); experiment: Ki,app for the β-lactamase; format: biochemical
Sequence of BlaMab (B1MCI3 entry or part of it): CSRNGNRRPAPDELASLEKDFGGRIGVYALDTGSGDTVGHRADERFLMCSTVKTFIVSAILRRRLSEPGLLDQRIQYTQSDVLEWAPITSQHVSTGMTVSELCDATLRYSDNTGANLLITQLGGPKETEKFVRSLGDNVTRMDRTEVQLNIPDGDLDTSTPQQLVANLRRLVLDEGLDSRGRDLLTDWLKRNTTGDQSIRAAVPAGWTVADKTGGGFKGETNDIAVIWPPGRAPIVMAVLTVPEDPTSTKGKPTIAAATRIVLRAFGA

LDT2 [5] = molecular target: T2, LDT2; experiment: Circular dichroism spectroscopy; format: binding; conditions: 5 µM LDT2, 10 µM β-lactam, 2 h, 25°C
Procedure: The circular dichroism spectra of LDT2 (5 µM in PBS buffer) were recorded on a circular dichroism spectrometer with a 2 mm path length, both in the absence and presence of 10 µM imipenem, ceftaroline, sulopenem, and cefuroxime at 25°C. To ensure the detection of conformational changes, LDT2 and the β-lactams were incubated at room temperature for 2 h. The contribution of each β-lactam alone was subtracted in each case.

Mab ATCC 19977 = experiment: Static drug-concentration time-kill (SCTK) assay with CART analysis; format: cell-based, Mycobacterium abscessus; conditions: clinically achievable concentrations, over 10 days; AVI 4 mg/L; DUR 12 mg/L + SUL 7 mg/L
[6] = system: Mycobacterium abscessus ATCC 19977 strain; experiment: Morphological changes by flow cytometry and confocal microscopy; format: cell-based; conditions: clinically relevant unbound concentrations (fCss,ave), 24 h
Procedure: Flow cytometry was employed to evaluate morphological changes in individual bacterial cells following PBP-lipo inactivation after 24 h of β-lactam treatment. The bacterial cells were stained using the BacLight kit L7012 (Thermo Fisher Scientific, Waltham, MA), containing SYTO 9 and propidium iodide (PI). Analysis was performed using a CytoFLEX flow cytometer (Beckman Coulter, CA), with data processed using CytExpert software.
Bacterial morphological changes resulting from PBP-lipo inactivation were investigated using an ImageXpress Micro Confocal Microscope (Molecular Devices, CA). The staining procedures applied to the samples mirrored those used for flow cytometry. Stained bacterial cells were placed in optically clear flat-bottom 96-well plates, and observations were conducted at 60× magnification. Cell length measurements were obtained through automated image analysis using MetaXpress 6 software.

[7] = ATCC19977, Mab ATCC 19977, no BLI added, 30°C, 48 h

SMILES: CO[C@@]1(NC(=O)Cc2cccs2)C(=O)N2C(C(=O)O)=C(COC(N)=O)CS[C@@H]21 [Cefoxitin, cefoxitin]
MIC (Mab ATCC 19977 strain; [7]): 16 µg/mL (≈ 37.4 µM)

SMILES: CCO/N=C(\C(=O)N[C@@H]1C(=O)N2C(C(=O)[O-])=C(Sc3nc(-c4cc[n+](C)cc4)cs3)CS[C@H]12)c1nsc(N)n1 [Ceftaroline, ceftaroline]
MIC (Mab ATCC 19977 strain; ATCC19977, 48 h): 16 µg/mL (≈ 26.5 µM) | MIC, + AVI (4 mg/L) (Mab ATCC 19977 strain; fixed avibactam 4 mg/L): 1 to 2 µg/mL | MIC, + DUR + SUL (1 mg/L) (Mab ATCC 19977 strain; fixed durlobactam 1 mg/L + sulbactam 1 mg/L): 2 µg/mL | Observed MW (+ change in mw), LDT3 (44,795) (LDT3): 44,794 (−) Da | Binding to PBP-lipo (Bocillin-FL competition) (PBP-lipo [2]): demonstrated binding to PBP-lipo | Ratio of fCss,avg to Ki,app, LDT1 (LDT1; in parentheses in Table 3): 14 | Ki (LDT1): 0.827 µM | Ratio of fCss,avg to Ki,app, LDT2 (LDT2 [3]; in parentheses in Table 3): 10 | Ki (LDT2 [3]): 1.16 µM | Ratio of fCss,avg to Ki,app, LDT4 (LDT4): 0.1 | Ki (PBP-lipo [4]): 23.2 µM | Ratio of fCss,avg to Ki,app, PBP-lipo (PBP-lipo [4]; in parentheses in Table 3): 0.5 | Ratio of fCss,avg to Ki,app, DDC (DDC): 0.3 | Ratio of fCss,avg to Ki,app, LDT5 (LDT5): 0.1 | Ki (PBP B): 2.32 µM | Ratio of fCss,avg to Ki,app, PBP B (PBP B; in parentheses in Table 3): 5 | Ki (BlaMab): 681 µM | fCss,avg ([1]; median unbound average steady-state plasma concentration, continuous infusion, daily dose DUR 4,000, AVI 1,500, IPM 4,000, CFT 1,800, AMX 1,500, SULO 1,000, CXM 1,500, SUL 4,000, TBP 1,800 mg): 7 mg/L | Conformational change of LDT2 (CD spectrum) (LDT2 [5]): altered its secondary structure

SMILES: CC1(C)[C@H](C(=O)O)N2C(=O)C[C@H]2S1(=O)=O [Sulbactam, sulbactam]
Bacterial killing (log10 reduction) in time-kill (Mab ATCC 19977): no bacterial killing | Ki (LDT1): 643 µM | Ki (LDT2 [3]): 0.0857 µM | Ki (PBP B): 55.7 µM | Morphological change of Mab cells [6]: did not induce noticeable morphological changes

The remaining lines, values ahead:

MIC (Mab ATCC 19977 strain; [7]): 16 µg/mL (≈ 27.3 µM) | Average unbound concentration at steady-state ([1]; amikacin doses between 20 and 30 mg/kg): 12 mg/L
SMILES: NCC[C@H](O)C(=O)N[C@@H]1C[C@H](N)[C@@H](O[C@H]2O[C@H](CN)[C@@H](O)[C@H](O)[C@H]2O)[C@H](O)[C@H]1O[C@H]1O[C@H](CO)[C@@H](O)[C@H](N)[C@H]1O [Amikacin, amikacin]

MIC (Mab ATCC 19977 strain; [7]): 8 µg/mL (≈ 10.7 µM) | Steady-state average unbound concentration ([1]; daily dose of 1000 mg): 0.3 mg/L
SMILES: CC[C@H]1OC(=O)[C@H](C)[C@@H](O[C@H]2C[C@@](C)(OC)[C@@H](O)[C@H](C)O2)[C@H](C)[C@@H](O[C@@H]2O[C@H](C)C[C@H](N(C)C)[C@H]2O)[C@](C)(OC)C[C@@H](C)C(=O)[C@H](C)[C@@H](O)[C@]1(C)O [Clarithromycin, clarithromycin]
